Results from US20220280507A1, “USES OF 5-METHYLTETRAHYDROFOLATE AND ITS COMPOSITION” (Lianyungang Jinkang Hexin Pharmaceutical Co., Ltd., priority 2019, published 2022).
Like-named read-outs stand apart in the source and are kept apart here.

What was measured:
[1] = tested on: alcoholic liver damage and fatty liver; assay: Alcoholic fatty liver model, serum TG, TC, SOD, MDA and liver histopathology; assay type: in vivo, SD rats; conditions: for MDA / SOD: day 61, liquor model; for MDA / SOD / TC / TG: n=16; for Pathological examination of liver: liquor model; for TC / TG: serum day 61, liquor model
Description: 96 SPF-grade SD rats were chosen in half female and half male with an average weight of 176-220 g at the beginning of the experiment. According to their weight, they were randomly divided into vehicle control group (purified water, ig), model control group (liquor, 10 ml·Kg−1), positive control group (bicyclol, 50 mg·Kg−1, ig), folic acid calcium salt high-dose group (4 mg·Kg−1), folic acid calcium salt medium-dose group (2 mg·Kg−1), folic acid calcium salt low-dose group (1 mg·Kg−1), in half female and half male, and 16 rats in each group. Purified water was used as a negative control, and bicyclol (place of origin: Beijing Xiehe Pharmaceutical Factory, specification: 25 mg/tablet, batch number: H20040467) was used as a positive control drug. Route of administration: all were administered by oral gavage. Dosage of administration: 1 mg·Kg−1, 2 mg·Kg−1, and 4 mg·Kg−1. Frequency of administration: once a day for 60 consecutive days. Erguotou (batch number: 201603092, specification: 2L, place of origin: Beijing Shunxin Agriculture Co., Ltd.) model establishing method: gavage with diluted 56-degree Erguotou twice a day for 60 consecutive days.
Method of administration: administration started at prescribed doses on the day of modeling for 60 consecutive days and ended at the 60th day. At the same time, rats in each group were weighed every other week during administration period to monitor their body weight changes. On the 61st day, rats were dissected and serum was collected for determination of triglyceride (TG), total cholesterol (TC), malondialdehyde (MDA), superoxide dismutase (SOD) and liver histopathologic examination. The brain tissue of rats was taken out, and hippocampus tissue was separated on ice plate, prepared to homogenate with a mass fraction of 10% with purified water, then the homogenate was centrifuged to obtain supernatant. ELISA was used to detect the levels of inflammatory factors TNF-α and IL-1β in hippocampus tissue with continuous spectrum scanning microplate reader.

[2] = tested on: alcoholic steatohepatitis; conditions: 4 mg·Kg−1 daily
Description: Experiment 12 Effect of 5-Methyltetrahydrofolate on Intestine Induced by Chronic Alcohol
(§1) 96 SPF-grade SD rats, half female and half male, were chosen with an average weight of 176-220 g at the beginning of the experiment, and randomly divided into vehicle control group (glucose, 10 g·Kg−1) and model control group (liquor, 6 g·Kg−1), 5-methyltetrahydrofolate calcium group (folic acid, 4 mg·Kg−1, glucose, 10 g·Kg−1), half female and half, 16 rats in each group. […] The day on which the dose of alcohol reached 6g·Kg−1 was defined as the first day of modeling. The intestinal permeability of rats was measured at Weeks 2 and 8, then 5 rats were sacrificed at random, blood and liver tissues were taken.
8 weeks later, rats in the remaining groups received fecal microbiota transplantation from patients with alcoholic steatohepatitis, and were sacrificed at Week 10, then blood and liver tissues were taken.
60 g of stools were collected from patients with alcoholic steatohepatitis, mixed with 300 mL of normal saline and filtered, and the bacteria solution was stored in an anaerobic bag at 4° C. for later use. After 8 weeks, the remaining rats in all groups were anesthetized with ether, and catheter was used to slowly inject the bacteria solution (2 mL) into their colon, and the rats continued to be fed with the same doses the next day. At Week 10, all rats were sacrificed, liver tissues were stained with H&E and sectioned for disease assessment. At least three different sections of each rat were studied to reasonably assess liver lesions. In order to reasonably assess fatty degeneration, necrosis, inflammation, and fibrosis of liver, liver lesions were graded into different degrees. The proportion of fatty liver cells was <50%, 50-75% and >75%, respectively, corresponding to the severity of fatty degeneration. Focal necrosis was also quantified (number of necrotic foci/mm2), and dense inflammatory infiltrates were also graded. Alcoholic steatohepatitis (ASH) is defined as the presence of inflammatory cell infiltration, spot necrosis and stem cell necrosis in the liver.

[3] = tested on: homocysteine (Hcy); assay: Homocysteine (Hcy) in plasma of alcohol drinking rats; assay type: in vivo, SD rats; conditions: plasma 6 h after Erguotou 20 ml·Kg−1
Description: Experiment 2 Effect of 5-methyltetrahydrofolate on homocysteine (Hcy) in plasma of alcohol drinking rats.
30 SPF-grade SD rats were chosen in half male and half female, and divided into 5 groups with 6 rats in each group, including normal group, model group, positive drug group (Weihe Liver Protectant), 5-methyltetrahydrofolate administration groups (4 mg·Kg−1 medium dose group, 8 mg·Kg−1 high dose group, respectively). After fasting for 12 h, the administration groups were given Weihe Liver Protectant at 50 mg·kg−1, 5-methyltetrahydrofolate (Jinkang Hexin product) at 4 mg·Kg−1, 5-methyltetrahydrofolate (Jinkang Hexin product) at 8 mg·Kg−1, respectively. […] 6 h after drinking, blood was collected from the eye socket, treated with 0.5% EDTA-Na for anticoagulation (10 ml/L), immediately cooled in an ice bath, and centrifuged at 4° C. (3500r/min) for 15 min within 30 min. Plasma was collected and stored at −20° C. The plasma Hcy concentration was determined with high pressure liquid chromatography-fluorescence detection method.

[4] = tested on: intestinal barrier function; conditions: chronic alcohol-fed rats, 4 mg·Kg−1
Description: as §1
An oral sugar test was carried out to evaluate intestinal permeability. After fasting for 8 h, the rats were given 2.0 ml of sugar solution,
with lactulose (107 mg/kg), mannitol (30 mg/kg), sucralose (15 mg/kg) and sucrose (570 mg/kg). The rats were individually housed in metabolic cages, and urine was collected. The sugar concentration in the urine was determined by gas chromatography. Blood samples were used to analyze endotoxin in serum with Kinetic-QLC kit.

[5] = Week 10 after fecal microbiota transplantation, n = 6

5-methyltetrahydrofolate calcium
MDA ([1]; 1 mg·kg−1·d−1 ig 60 d): 45.20 ± 8.17 nmol/mgprot | SOD ([1]; 1 mg·kg−1·d−1 ig 60 d): 253.20 ± 24.66 U/mgprot | MDA ([1]; 2 mg·kg−1·d−1 ig 60 d): 42.17 ± 8.65 nmol/mgprot | SOD ([1]; 2 mg·kg−1·d−1 ig 60 d): 257.41 ± 31.28 U/mgprot | MDA ([1]; 4 mg·kg−1·d−1 ig 60 d): 47.96 ± 10.28 nmol/mgprot | SOD ([1]; 4 mg·kg−1·d−1 ig 60 d): 248.87 ± 34.64 U/mgprot | Pathological examination of liver ([1]; high-dose group 4 mg·Kg−1 ig 60 d): no hyperplasia of interstitial connective tissue and fatty degeneration of hepatocytes | Pathological examination of liver ([1]; low-dose group 1 mg·Kg−1 ig 60 d): a few fatty vacuoles in hepatocytes, and no obvious hyperplasia of interstitial connective tissue | Pathological examination of liver ([1]; medium-dose group 2 mg·Kg−1 ig 60 d): no hyperplasia of interstitial connective tissue and fatty degeneration of hepatocytes | TC ([1]; 1 mg·kg−1·d−1 ig 60 d): 1.42 ± 0.36 mmol/L | TG ([1]; 1 mg·kg−1·d−1 ig 60 d): 1.08 ± 0.34 mmol/L | TC ([1]; 2 mg·kg−1·d−1 ig 60 d): 1.50 ± 0.37 mmol/L | TG ([1]; 2 mg·kg−1·d−1 ig 60 d): 1.03 ± 0.50 mmol/L | TC ([1]; 4 mg·kg−1·d−1 ig 60 d): 1.47 ± 0.44 mmol/L | TG ([1]; 4 mg·kg−1·d−1 ig 60 d): 1.04 ± 0.43 mmol/L

CN1c2c([nH]c(N)nc2=O)NCC1CNc1ccc(C(=O)N[C@@H](CCC(=O)O)C(=O)O)cc1 (stereo partly drawn) [5-methyltetrahydrofolate, N-[4-[[(2-amino-1,4,5,6,7,8-hexahydro-4-oxo-5-methyl-(6S), -(6R), and (6R,S)-pteridyl)methyl)amino)toluoyl-glutamic acid]
Case percentage: fatty degeneration, percentage of fatty liver cells 50-75% ([2]; Week 8, n = 5): 20% | Case percentage: fatty degeneration, percentage of fatty liver cells < 50% ([2]; Week 8, n = 5): 80% | Case percentage: fatty degeneration, percentage of fatty liver cells > 75% ([2]; Week 8, n = 5): 0% | Case percentage: inflammatory foci 1-4 pcs/mm^2 ([2]; Week 8, n = 5): 0% | Case percentage: inflammatory foci <1 pc/mm^2 ([2]; Week 8, n = 5): 100% | Case percentage: inflammatory foci >4 pcs/mm^2 ([2]; Week 8, n = 5): 0% | Case percentage: liver fibrosis ([2]; Week 8, n = 5): 0% | Case percentage: necrosis foci 1-3 pcs/mm^2 ([2]; Week 8, n = 5): 0% | Case percentage: necrosis foci <1 pc/mm^2 ([2]; Week 8, n = 5): 100% | Case percentage: necrosis foci >3 pcs/mm^2 ([2]; Week 8, n = 5): 0% | Case percentage: fatty degeneration, percentage of fatty liver cells 50-75% [2, 5]: 33.3% | Case percentage: fatty degeneration, percentage of fatty liver cells < 50% [2, 5]: 66.7% | Case percentage: fatty degeneration, percentage of fatty liver cells > 75% [2, 5]: 0% | Case percentage: inflammatory foci 1-4 pcs/mm^2 [2, 5]: 0% | Case percentage: inflammatory foci <1 pc/mm^2 [2, 5]: 100% | Case percentage: inflammatory foci >4 pcs/mm^2 [2, 5]: 0% | Case percentage: liver fibrosis [2, 5]: 0% | Case percentage: necrosis foci 1-3 pcs/mm^2 [2, 5]: 0% | Case percentage: necrosis foci <1 pc/mm^2 [2, 5]: 100% | Case percentage: necrosis foci >3 pcs/mm^2 [2, 5]: 0% | Hcy ([3]; 4 mg·Kg−1, n=6): 3.13 ± 1.26 µmol/L | Hcy ([3]; 8 mg·Kg−1, n=6): 2.32 ± 1.49 µmol/L | Intestinal barrier function [4]: can improve intestinal barrier function in the presence of alcohol | Serum endotoxin level [4]: reduce serum endotoxin level
